Legend:
Type in all cases: cell-based, mouse
[1] = test system: NIH3T3 cells overexpressing Ki-ras; assay: MTT cell viability, Ki-ras overexpressing cells vs parental line; settings: Ki-ras high-expressing cells / parental cell line, 3 to 4 days
Method: (§1) With regard to the function-known genes, the genes shown in the left column of Table 2 were used. With regard to the drugs, those shown in Table 1 were dissolved in DMSO to an extent of 100-fold of the maximum concentration for the search of the drugs and used. With regard to the cells, incubated NIH3T3 or ras-NIH3T3 cells were used.
(§2) Full-length cDNA of each function-known genes was incorporated into an expression vector (pRc-CMV, etc.) and transfected into NIH3T3 cells by a common method. Transformed cells were isolated using the resistance to G-418 as an index and the expression of the transfected gene in each cell was investigated by Western blotting method to select a highly expressing line.
(§3) Cell viabilities were measured according to the following procedures.
(§4) 1) From the 2nd to the 11th rows of a 96-well plate were filled with DMEM (50 μl). The 12th row was filled with 100 μl of DMEM.
(§5) 2) The 1st row was filled with 98 μl of DMEM.
(§6) 3) Drugs (2 μl each) were added into the 1st row.
(§7) 4) Continuous double-dilution was conducted from the 1st to the 9th rows. Fifty μl were taken out from the 9th row and discarded. The plate was preserved in a CO2 incubator.
(§8) 5) Cells (each high-expressing cells and the parental cell line) were detached from the medium using a trypsin solution, suspended in 10% CS-DMEM and transferred to a test tube and cell numbers (cell/ml) were counted.
(§9) 6) The cells were diluted to a concentration of 1×10^5 cells/ml, and 50 μl of the cell suspension were added to the 1st to the 11th rows of the plate followed by gently stirring.
(§10) 7) The plate was transferred to the CO2 incubator and incubated for 3 to 4 days.
(§11) 8) MTT (5 mg/ml in PBS) (10 μl) was added to the 1st to the 12th rows of the plate and incubated in the CO2 incubator at 37° C. for 4 hours.
(§12) 9) A reaction stop solution (0.04N HCl in isopropanol) (150 μl) was added followed by mixing well and being allowed to stand at room temperature for about 2 hours.
(§13) 10) Coloration of formazan which was a metabolite of the MTT dye was measured using a microplate reader. The measurement wavelength was 574 nm and the reference wavelength was 655 nm. The 10th and the 11th rows of the plate were 100% controls and the 12th row was a 0% control.
(§14) As an index for the sensitivity of highly gene-expressing cells and the parental cell line to various drugs, each of the IC40 values thereof was specified and ratios of the IC40 values were calculated. FIG. 2 and FIG. 3 are the examples where ratios of IC40 values were calculated from a curve showing the dependency on the concentration of the chemical versus the viability. After that, logarithmic values of ratios of IC40 values were calculated from each gene.

[2] = test system: NIH3T3 cells overexpressing N-ras; assay: MTT cell viability, N-ras overexpressing cells vs parental line; settings: N-ras high-expressing cells / parental cell line, 3 to 4 days
Method: as §1, §2, §3, §4, §5, §6, §7, §8, §9, §10, §11, §12, §13, §14

[3] = test system: NIH3T3 cells overexpressing p16/INK4A; assay: MTT cell viability, p16/INK4A overexpressing cells vs parental line; settings: p16/INK4A high-expressing cells / parental cell line, 3 to 4 days
Method: as §1, §2, §3, §4, §5, §6, §7, §8, §9, §10, §11, §12, §13, §14

[4] = test system: NIH3T3 cells overexpressing Bax; assay: MTT cell viability, Bax overexpressing cells vs parental line; settings: 3 to 4 days
Method: as §1, §2, §3, §4, §5, §6, §7, §8, §9, §10, §11, §12, §13
(§15) As an index for the sensitivity of highly gene-expressing cells and the parental cell line to various drugs, each of the IC40 values thereof was specified and ratios of the IC40 values were calculated. […] After that, logarithmic values of ratios of IC40 values were calculated from each gene.

[5] = test system: NIH3T3 cells overexpressing m-calpain; assay: MTT cell viability, m-calpain overexpressing cells vs parental line; settings: m-calpain high-expressing cells / parental cell line, 3 to 4 days
Method: as §1, §2, §3, §4, §5, §6, §7, §8, §9, §10, §11, §12, §13, §15

[6] = test system: NIH3T3 cells overexpressing cAMP-PK-CS; assay: MTT cell viability, cAMP-PK-CS overexpressing cells vs parental line; settings: cAMP-PK-CS high-expressing cells / parental cell line, 3 to 4 days
Method: as §1, §2, §3, §4, §5, §6, §7, §8, §9, §10, §11, §12, §13, §15

[7] = test system: NIH3T3 cells overexpressing calpastatin; assay: MTT cell viability, calpastatin overexpressing cells vs parental line; settings: calpastatin high-expressing cells / parental cell line, 3 to 4 days
Method: as §1, §2, §3, §4, §5, §6, §7, §8, §9, §10, §11, §12, §13, §14

[8] = test system: NIH3T3 cells overexpressing PDGF-R; assay: MTT cell viability, PDGF-R overexpressing cells vs parental line; settings: PDGF-R high-expressing cells / parental cell line, 3 to 4 days
Method: as §1, §2, §3, §4, §5, §6, §7, §8, §9, §10, §11, §12, §13, §14

[9] = test system: NIH3T3 cells overexpressing PDGF-R-Del; assay: MTT cell viability, PDGF-R-Del overexpressing cells vs parental line; settings: PDGF-R-Del high-expressing cells / parental cell line, 3 to 4 days
Method: as §1, §2, §3, §4, §5, §6, §7, §8, §9, §10, §11, §12, §13, §14

[10] = test system: NIH3T3 cells overexpressing Gluco-corticoid-R; assay: MTT cell viability, Gluco-corticoid-R overexpressing cells vs parental line; settings: Gluco-corticoid-R high-expressing cells / parental cell line, 3 to 4 days
Method: as §1, §2, §3, §4, §5, §6, §7, §8, §9, §10, §11, §12, §13, §15

[11] = test system: NIH3T3 cells overexpressing STAT1; assay: MTT cell viability, STAT1 overexpressing cells vs parental line; settings: STAT1 high-expressing cells / parental cell line, 3 to 4 days
Method: as §1, §2, §3, §4, §5, §6, §7, §8, §9, §10, §11, §12, §13, §15

[12] = test system: NIH3T3 cells overexpressing CBP8; assay: MTT cell viability, CBP8 overexpressing cells vs parental line; settings: CBP8 high-expressing cells / parental cell line, 3 to 4 days
Method: as §1, §2, §3, §4, §5, §6, §7, §8, §9, §10, §11, §12, §13, §14

[13] = test system: NIH3T3 cells overexpressing PKCepsilon-KN; assay: MTT cell viability, PKCepsilon-KN overexpressing cells vs parental line; settings: 3 to 4 days
Method: as §1, §2, §3, §4, §5, §6, §7, §8, §9, §10, §11, §12, §13, §15

[14] = test system: NIH3T3 cells, TPA (PKC downreg); assay: MTT cell viability, TPA (PKC downreg) cells vs parental line; settings: 3 to 4 days
Method: as §1, §2, §3, §4, §5, §6, §7, §8, §9, §10, §11, §12, §13, §14

[15] = test system: NIH3T3 cells overexpressing ERK-DN; assay: MTT cell viability, ERK-DN overexpressing cells vs parental line; settings: ERK-DN high-expressing cells / parental cell line, 3 to 4 days
Method: as §1, §2, §3, §4, §5, §6, §7, §8, §9, §10, §11, §12, §13, §15

[16] = test system: NIH3T3 cells overexpressing JNK-DN; assay: MTT cell viability, JNK-DN overexpressing cells vs parental line; settings: JNK-DN high-expressing cells / parental cell line, 3 to 4 days
Method: as §1, §2, §3, §4, §5, §6, §7, §8, §9, §10, §11, §12, §13, §14

[17] = test system: NIH3T3 cells overexpressing HSP4O; assay: MTT cell viability, HSP4O overexpressing cells vs parental line; settings: HSP4O high-expressing cells / parental cell line, 3 to 4 days
Method: as §1, §2, §3, §4, §5, §6, §7, §8, §9, §10, §11, §12, §13, §14

[18] = test system: NIH3T3 cells overexpressing CaMKIIa-Active; assay: MTT cell viability, CaMKIIa-Active overexpressing cells vs parental line; settings: CaMKIIa-Active high-expressing cells / parental cell line, 3 to 4 days
Method: as §1, §2, §3, §4, §5, §6, §7, §8, §9, §10, §11, §12, §13, §14

[19] = test system: NIH3T3 cells overexpressing HNF4; assay: MTT cell viability, HNF4 overexpressing cells vs parental line; settings: HNF4 high-expressing cells / parental cell line, 3 to 4 days
Method: as §1, §2, §3, §4, §5, §6, §7, §8, §9, §10, §11, §12, §13, §15

[20] = Bax (first of two Bax lines) high-expressing cells / parental cell line
[21] = Bax (second of two Bax lines) high-expressing cells / parental cell line
[22] = PKCepsilon-KN (first of two lines) high-expressing cells / parental cell line
[23] = PKCepsilon-KN (second of two lines) high-expressing cells / parental cell line

Compound | logarithmic value of ratio of IC40 values [1] | logarithmic value of ratio of IC40 values [2] | logarithmic value of ratio of IC40 values [3] | logarithmic value of ratio of IC40 values [4, 20] | logarithmic value of ratio of IC40 values [4, 21] | logarithmic value of ratio of IC40 values [5] | logarithmic value of ratio of IC40 values [6] | logarithmic value of ratio of IC40 values [7] | logarithmic value of ratio of IC40 values [9] | logarithmic value of ratio of IC40 values [10] | logarithmic value of ratio of IC40 values [11] | logarithmic value of ratio of IC40 values [12] | logarithmic value of ratio of IC40 values [13, 22] | logarithmic value of ratio of IC40 values [13, 23] | logarithmic value of ratio of IC40 values [14] | logarithmic value of ratio of IC40 values [15] | logarithmic value of ratio of IC40 values [16] | logarithmic value of ratio of IC40 values [17] | logarithmic value of ratio of IC40 values [18] | logarithmic value of ratio of IC40 values [19] | other results
CC(=O)OCOC(=O)CN(CC(=O)OCOC(C)=O)c1ccccc1OCCOc1ccccc1N(CC(=O)OCOC(C)=O)CC(=O)OCOC(C)=O [BAPTA-AM] | −0.15 | 0.00 | 0.20 | 0.15 | 0.00 | 0.00 | −0.10 | 0 | 0.31 | 0.10 | 0.10 | 0.00 | 0.00 | 0.00 | −0.03 | 0.12 | 0.06 | 0.05 | 0.18 | −0.10 | logarithmic value of ratio of IC40 values [8]: 0.29
CNc1ccc2oc(C[C@H]3O[C@@]4(CC[C@H]3C)O[C@H]([C@H](C)C(=O)c3ccc[nH]3)[C@H](C)C[C@H]4C)nc2c1C(=O)O [A23187] | 0.06 | 0.20 | 0.00 | 0.00 | −0.09 | 0.26 | −0.08 | −0.12 | 0.15 | 0.28 | 0.31 | 0.22 | −0.28 | 0.15 | −0.22 | 0.00 | −0.08 | −0.16 | 0.18 | 0.19 | logarithmic value of ratio of IC40 values [8]: 0.31
O=CN/C=C/c1cc(O)ccc1O [Erbstatin, erbstatin] | 0.04 | −0.22 | 0.51 | 0.27 | 0.04 | 0.00 | 0.05 | −0.2 | 0.00 | 0.06 | 0.04 | 0.14 | −0.12 | 0.00 | 0.00 | 0.13 | 0.11 | 0.00 | 0.21 | 2.00 | 

From US20040086901A1, “Database for analyzing gene function and method of analyzing gene function by dspa” (priority 2000, published 2004)
